Values joined by “and” are separate entries in the source; they are usually repeats but may differ in a detail not shown here. Identical values can stand only once.
Columns and labels:
[1] = system: MRSA; experiment: MIC in CAMHB, 96-well plate (10^5 to 10^2 CFU/mL in 24 hours); format: cell-based, methicillin-resistant Staphylococcus aureus; settings: Staphylococcus aureus, MRSA
Protocol: (§1) To determine the MIC of polyamine compounds, the protocol described herein was used.
In brief, a 0.5 McFarland of each bacterial isolate was made. A 0.5 McFarland is a measure of turbidity in a liquid sample that contains approximately 1×10̂^8 CFU/mL. The 0.5 McFarland standard was diluted in cation adjusted Mueller Hinton Broth (CAMHB), and […], of broth were added to a well of a 96-well plate. In addition, 50 μL of CAMHB that contained a desired concentration of antimicrobial were also added to the well for a final volume of 100 and a final concentration of approximately 5×10^4 CFU/well (which equated to approximately 5×10^5 CFU/mL). Each well contained a desired amount of polyamine compound in order to experimentally determine the MIC. Each 96-well plate was incubated at 37° C. for 24 hours. The contents of each well were plated on tryptic soy agar (TSA). TSA plates were incubated for 37° C. for 24 hours after which the number of CFU were counted and used to calculate the CFU/mL that remained after exposure to varying concentrations of compound. This procedure was repeated n=8 times for each concentration of antimicrobial. […]

[2] = system: P. aeruginosa; experiment: as above; format: cell-based; settings: Pseudomonas aeruginosa
Protocol: as §1
In brief, a 0.5 McFarland of each bacterial isolate was made. A 0.5 McFarland is a measure of turbidity in a liquid sample that contains approximately 1×10̂^8 CFU/mL. The 0.5 McFarland standard was diluted in cation adjusted Mueller Hinton Broth (CAMHB), and […], of broth were added to a well of a 96-well plate. In addition, 50 μL of CAMHB that contained a desired concentration of antimicrobial were also added to the well for a final volume of 100 and a final concentration of approximately 5×10^4 CFU/well (which equated to approximately 5×10^5 CFU/mL). Each well contained a desired amount of polyamine compound in order to experimentally determine the MIC. Each 96-well plate was incubated at 37° C. for 24 hours. The contents of each well were plated on tryptic soy agar (TSA). TSA plates were incubated for 37° C. for 24 hours after which the number of CFU were counted and used to calculate the CFU/mL that remained after exposure to varying concentrations of compound. This procedure was repeated n=8 times for each concentration of antimicrobial.

[3] = system: A. baumannii biofilm; experiment: MBEC, MBEC Inoculation Tray by Innovotech (to 10^2 CFU/peg in 24 hours); format: cell-based, Acinetobacter baumannii; settings: Table 4
Text: To determine the MBEC of each polyamine compound, the MBEC Inoculation Tray by Innovotech, formerly known as the Calgary biofilm device, was used. Within this device, biofilms grow on the surface of polystyrene pegs, 96 of which are attached to a lid. These pegs are inserted into a flat bottom 96-well plate. In this instance, the MBEC of a molecule was defined as the concentration of compound (in μg/mL) required to reduce 10^5 or 10^6 CFU/peg (biofilm levels varied by isolate) to 10^2 CFU/peg in a 24-hour period.
Following the manufacturer's guidelines, biofilms were grown on the surface of each peg by first making a 0.5 McFarland of each isolate. The 0.5 McFarland was diluted 1:100 in CAMHB. Into each well of a flat bottom 96-well plate, 150 μL of broth were pipetted. The plate was shaken at 100 rpm for 24 hours (P. aeruginosa and A. baumannii) or 48 hours (MRSA). The pegs were then placed into a separate flat bottom 96-well plate for 10 seconds with 200 μL of phosphate buffered saline (PBS) in each well to remove nonadherent cells. The lid was then placed into a 96-well plate that contained varying concentrations of antimicrobial with 200 μL per well. The plate was incubated for 24 hours at 37° C. after which time 100 μL of broth were plated on TSA. TSA plates were incubated 24 hours at 37° C. and the number of CFU counted to calculate the CFU/peg. In this instance, the MBEC was defined as the concentration of antimicrobial required to reduce 10^5 or 10^6 CFU/peg to 10^2 CFU/peg in a 24 hour period.
To determine the MBEC, the MBEC Inoculation Tray by Innovotech, formerly known as the Calgary biofilm device, is used. Within this device, biofilms grow on the surface of polystyrene pegs, 96 of which are attached to a lid. These pegs are inserted into a flat bottom 96-well plate. In this instance, the MBEC of a molecule is defined as the concentration of compound required to reduce approximately 10^6 CFU/peg to approximately 10^2 CFU/peg in a 24-hour period.
Following the manufacturer's guidelines, biofilms are grown on the surface of each peg by first making a 0.5 McFarland of A. baumannii. The 0.5 McFarland is diluted 1:100 in CAMHB broth. Into each well of a flat bottom 96-well plate, 150 μL of broth is pipetted. The plate is shaken at 100 rpm for 24 hours. The pegs are placed into a separate flat bottom 96-well plate for 10 seconds with 200 μL of phosphate buffered saline (PBS) in each well to remove nonadherent cells. The lid is placed into a 96-well plate that contains varying concentrations of antimicrobial with 200 μL of broth per well. The plate is incubated for 24 hours at 37° C. after which time 100 μL of broth is plated on TSA. TSA plates is incubated 24 hours at 37° C. and the number of CFU counted to calculate the CFU/peg.
MBEC data were collected using the MBEC Inoculation Tray by Innovotech. The MBEC was defined in these preliminary results as the concentration of antimicrobial required to reduce 10^5 or 10^6 CFU/peg to 10^2 CFU/peg in a 24-hour period.

[4] = Table 3A, first P. aeruginosa column

Compound	MIC ([1]; Table 3A, first MRSA column) [µg/mL]	MIC ([1]; Table 4)	MIC [2, 4] [µg/mL]	MIC ([2]; Table 5, class symbols) [µM]	MBEC, A. baumannii [3]	MIC ([1]; Table 5, class symbols) [µM]
NCCCNCCCNCc1cccc(CNCCCNCCCN)c1 [CZ-25]	40	40 µg/mL and 110 µM	50	> 100	450 μg/mL and 1234 μM	–
NCCCNCCCNCc1cc(CNCCCNCCCN)cc(CNCCCNCCCN)c1 [CZ-52]	3	3 µg/mL and 6 µM	17	–	> 500 μg/mL and 995 μM	–
NCCCNCCCNCc1cc(CNCCCNCCCN)cc(-c2ccccc2)c1 [CZ-58]	–	6 µg/mL and 13.6 µM	–	< 50	> 50 μg/mL and > 113 μM	< 50
Polymyxin B sulfate [reference compound]	–	–	–	–	50 μg/mL and 36 μM	–

From patent publication US20150274639A1, “METHODS OF USE FOR COMPOSITIONS COMPRISING A BIOCIDAL POLYAMINE” (Curza Global, LLC, priority 2013, published 2015)
